Columns and labels:
primary human tenocytes = experiment: MTT cytotoxicity test on healthy tenocytes (individual substances and their combination); format: cell-based; settings: 24 hours
Experimental: The model is based on the use of primary human tenocytes, obtained through isolation from Achilles tendon, purchased from Zen-Bio (TEN-F), cultured and used according to the supplier's instructions. […] Preliminary cytotoxicity studies (i.e. MTT test (3-(4,5-dimethylthiazol-2-yl)-2,5-diphenyltetrazolium bromide) and the subsequent statistical analysis) were conducted on healthy tenocytes treated with the individual substances in order to identify the doses to be used for subsequent experiments, as well as the doses to be mixed to analyse synergism. Cells were seeded in 48 well multiwells, at a density of 6000 cells/well. After 48 ore, they were treated with different concentrations of vitamin C (from 0.88 μg/mL to 352 μg/mL), collagen peptides (from 100 μg/mL to 3000 μg/mL), astaxanthin (from 1 μg/mL to 1000 μg/mL) or resveratrol (from 0.1 μg/mL to 100 μg/mL) for 24 hours. The range of concentrations selected for each substance was determined based on the data reported in literature. The MTT test was conducted at the end of the treatment. […] The formazan deposits in the cells were then solubilised with isopropanol, obtaining a homogeneous solution whose absorbance can thus be measured at the spectrophotometer (absorbance at 510 nm). […]

NF-kB and PI-3K = settings: human tenocytes; dose and time-dependent manner; cited from earlier work

Row | SMILES | toxicity / cell viability (MTT test) (primary human tenocytes; at the tested doses (collagen 100-3000 μg/mL, astaxanthin 1-1000 μg/mL), results not reported in detail) | effect on cell viability (MTT test) (primary human tenocytes; resveratrol 50 and 100 μg/ml) | IL-1β-induced activation of NF-kB and PI-3K (NF-kB and PI-3K)
1 | CC1=C(/C=C/C(C)=C/C=C/C(C)=C/C=C/C=C(C)/C=C/C=C(C)/C=C/C2=C(C)C(=O)[C@@H](O)CC2(C)C)C(C)(C)C[C@H](O)C1=O [astaxanthin] | devoid of toxicity |  | 
2 | Oc1ccc(/C=C/c2cc(O)cc(O)c2)cc1 [resveratrol, 5-[(E)-2-(4-hydroxyphenyl)ethenyl]benzene-1,3-diol] |  | negative effect on cell viability | capable of suppressing IL-1β-induced activation of NF-kB and PI-3K

— patent US20230024304A1, “A MULTICOMPONENT COMPOSITION COMPRISING A COLLAGEN, RESVERATROL AND ASTAXANTHIN AND THE USE THEREOF FOR THE TREATMENT OF TENDINOPATHIES” (KOLINPHARMA S.P.A., priority 2019, published 2023)
